In patent US20050191348A1 (priority 2004, published 2005):

What was measured:
[1] = test system: Bcl-2 family and PKC isoform mRNA; test: Gene expression by quantitative real-time RT-PCR in serum-free PC12 cells; type: cell-based, rat; conditions: 1 μM, 24 h, serum-free PC12
Protocol: (vi) Total RNA extraction. PC12 cells were cultured in DMEM containing 5% FCS and 10% horse serum until confluence. At the day of the experiment, the medium was replaced with fresh medium without serum and rasagiline or propargylamine at various concentrations were administered for 24 h. At the end of incubation, the medium was removed and isolation of total RNA was performed, using Tri Reagent™ Isolation reagent. Total RNA was treated with DNase-RNase free (Roche Diagnostics, Mannheim, Germany) for 30 min at 37° C. and subsequently extracted by a round of phenol:chlorophorm:isoamylalcohol (25:24:1), followed by one of chloroform. After precipitation with NaOAc (0.3 M) and ethyl alcohol, the RNA pellet was washed with 80% ethyl alcohol (12,000×g) for 10 min and resuspended in 50-100 μl of diethylpyrocarbonate (DEPC)-treated water and incubated for 5-10 min at 56° C. to facilitate resuspension.
(vi) Reverse transcription (RT) and quantitative real-time RT-PCR. In order to confirm the results obtained with the customized cDNA expression micro-array, 2 μg of total RNA were denatured and reverse transcribed using random hexanucleotides (0.5 μg/μl). Secondary structures of the template and primer (total volume of 16 μl) were opened by incubation for 5 min at 70° C. and immediately cooled on ice. Reaction mix (9 μl) containing reaction buffer, dNTP (0.5 mm each), RNAasin™ RNAase inhibitor (Promega) (25U) and M-MLV reverse transcriptase (200U) was added and samples were incubated at 39° C. for 1 h. For every RNA preparation a negative control was run in parallel consisting of a direct amplification of the RNA sample, omitting the RT step. The samples were transferred to 92° C. for 10 min, in order to deactivate the enzyme, and then cooled to 4° C.
Quantitative real-time PCR, using LightCycler and FastStart DNA Master SYBR Green I ready-to use PCR mix, was performed according to the manufacture's protocol (Roche Diagnostics, Mannheim, Germany). cDNA (40 ng) was amplified in 20 μl total volume. The sequences of the primers and the size of the products are described in Table 1. The results are analyzed on the provided program of the LightCycler. The relative expression level of a given mRNA was assessed by normalizing to the housekeeping gene 18S-rRNA and compared with control values.
In this experiment, we examined whether Bcl-2 family proteins mediate the pro-survival effect of rasagiline, using serum-starved rat pheochromocytoma PC12 cell line as a model of neuronal apoptosis. PC12 cells were maintained in full-serum (control), or in serum-free (SF) media in the absence or presence of various concentrations of rasagiline (0.001, 0.1, 1 and 10 μM) for 3 h or 24 h, and gene expression was measured by quantitative real-time RT-PC. The real-time RT-PCR consists of RNA samples isolated from said PC-12 cells. Each gene expression was normalized to the housekeeping gene, 18S-rRNA, since this transcript was reported to be less susceptible to the influence by external factors.
The effect of propargylamine on Bad and Bax mRNA levels was examined as described in Example 5 above.

[2] = target: T1, rat brain MAO-B (Rattus norvegicus, UniProt P19643); test: In vitro inhibition of rat brain MAO-B; type: biochemical
T1 construct: from tissue; host or cells: rat brain homogenate
T1 sequence (P19643 1-520): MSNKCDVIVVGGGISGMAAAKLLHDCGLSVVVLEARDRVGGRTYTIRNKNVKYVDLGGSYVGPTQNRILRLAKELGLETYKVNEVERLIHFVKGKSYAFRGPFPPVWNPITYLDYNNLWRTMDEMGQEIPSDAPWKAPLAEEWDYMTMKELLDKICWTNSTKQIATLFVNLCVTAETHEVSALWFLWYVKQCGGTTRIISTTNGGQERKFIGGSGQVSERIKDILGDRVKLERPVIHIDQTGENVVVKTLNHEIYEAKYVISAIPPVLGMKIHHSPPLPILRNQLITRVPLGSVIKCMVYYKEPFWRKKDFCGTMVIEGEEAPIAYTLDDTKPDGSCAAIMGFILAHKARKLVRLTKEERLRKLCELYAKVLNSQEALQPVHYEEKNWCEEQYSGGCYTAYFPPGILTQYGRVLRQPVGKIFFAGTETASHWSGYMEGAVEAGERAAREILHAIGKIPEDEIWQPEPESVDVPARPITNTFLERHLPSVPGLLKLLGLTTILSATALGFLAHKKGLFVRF
Protocol: To determine the activity of MAO-A and MAO-B, the test compound is added to a suitable dilution of the enzyme preparation from rat brain (70 μg protein for MAO-B and 150 μg MAO-A assay) in 0.05 M phosphate buffer (pH 7.4). Tthe mixture is incubated together with […], a specific inhibitor of MAO-B (for determination of MAO-A) or with […], a specific inhibitor of MAO-A (for determination of MAO-B). Incubation is carried for 1 h at 37° C. before addition of ^14C-5-hydroxytryptamine binoxalate ([…]), for determination of MAO-A, or ^14C-phenylethylamine ([…]), for determination of MAO-B, and incubation is continued for 30 min or 20 min, respectively. The reaction is stopped with 2 M ice-cold citric acid, and the metabolites are extracted and determined by liquid-scintillation counting in cpm units.
In another experiment, the in vitro inhibitory activity of propargylamine (P) against rat brain MAO-B was tested. Propargylamine (0.1, 1, 10, 100 μM) was added to buffer containing 0.05 μM clorgylin and was incubated with the tissue homogenate for 60 minutes at 37° C. before addition of ^14C-5-phenylethylamine. MAO-BA activity in presence of the test compound was expressed as a percentage of that in control samples. Mean values shown±SEM.

[3] = test system: SH-SY5Y neuroblastoma cells; test: Cell death under serum deprivation (apoptotic cell death detection ELISA), SH-SY5Y; type: cell-based, human; conditions: 24 h serum deprivation, significant at 1 and 10 μM
Protocol: (ii) Cell culture, viability measurements and experimental treatments. Two different neuronal cell lines were used: the rat PC12 and the human neuroblastoma SH-SY5Y cells.
SH-SY5Y neuroblastoma cells were plated in 100-mm culture dishes and cultured in Dulbecco's modified Eagle's medium (DMEM; 4500 mg/l glucose), containing 10% fetal calf serum (FCS) and a mixture of 1% penicillin/streptomycin/nystatin.
Cell cultures were incubated at 37° C. in a humid 5% CO2-95% air environment. For cell viability assays, cells were treated with various drugs in serum free media containing 0.1% BSA.
(iii) Measurement of cell death.
In order to test cell viability, PC12 cells and SH-SY5Y neuroblastoma cels were incubated under serum deprivation and were untreated or treated with rasagiline (0.1. 1 or 10 μM) for 24 hours.
In order to test cell viability, PC12 cells and SH-SY5Y neuroblastoma cels were incubated under serum deprivation and were untreated or treated with propargylamine (0.1. 1 or 10 μM) for 24 hours.

C#CCN [propargylamine]
Bad gene expression [1]: restored both Bax and Bad gene expressions to that of full serum level | Bax gene expression [1]: restored both Bax and Bad gene expressions to that of full serum level | MAO-B versus MAO-A selectivity ([2]; from IC50 values, rat brain): preferentially selective for MAO-B inhibition | IC50 ([2]; rat brain homogenate, 60 min preincubation at 37° C., 14C-phenylethylamine): ~10 µM | cell death induced by serum deprivation [3]: significantly reduced cell death
